Tests used:
Format in all cases: cell-based
Conditions in all cases: Flip-In 293 cells stably expressing eGFP-bromodomain fusion and mCherry; compound titrated, 5 h incubation; FIG. 1, 2A, 2B
[1] = system: BRD4BD1, BRD4BD2; test: Degradation of eGFP-fused BRD4 bromodomains, eGFP/mCherry reporter flow cytometry
Procedure: (§1) BRD2BD1, BRD2BD2, BRD3BD1, BRD3BD2, BRD4BD1, and BRD4BD2 were subcloned into mammalian pcDNA5/FRT Vector (Ampicillin and Hygromycin B resistant) modified to contain MCS-eGFP-P2A-mCherry. Stable cell lines expressing eGFP-protein fusion and mCherry reporter were generated using Flip-In 293 system. Plasmid (0.3 μg) and pOG44 (4.7 μg) DNA were preincubated in 100 μL of Opti-MEM™ I (Gibco™, Life Technologies™) media containing 0.05 mg/ml Lipofectamine® 2000 (Invitrogen™) for 20 min and added to Flip-In 293 cells containing 1.9 ml of Dulbecco's Modified Eagle's medium (DMEM) (Gibco™, Life Technologies™) per well in a 6-well plate format (Falcon, 353046). […]
(§2) Cells were seeded at 30-50% confluency in either 24, 48 or 96 well plates (3524, 3548, 3596 respectively, Costar) a day before compound treatment. The inventive compound 3 was titrated and then was incubated with cells for 5 h following trypsinization and resuspension in DMEM, transferred into 96-well plates (353910, Falcon®) and analyzed by flow cytometer (Guava® easyCyte™ HT, Millipore™). Signal from at least 3000 events per well was acquired and the eGFP and mCherry florescence monitored. Data was analyzed using FlowJo® (FlowJo®, LCC). […] The eGFP protein abundance relative to mCherry was then quantified as a ten-fold amplified ratio for each individual cell using the formula: 10× eGFP/mCherry. […]

[2] = system: BRD2BD1, BRD2BD2; test: Degradation of eGFP-fused BRD2 bromodomains, eGFP/mCherry reporter flow cytometry
Procedure: as §1, §2

[3] = system: BRD3BD1, BRD3BD2; test: Degradation of eGFP-fused BRD3 bromodomains, eGFP/mCherry reporter flow cytometry
Procedure: as §1, §2

Structure (SMILES) | degradation of stably expressed bromodomains of BRD4 (GFP/mCherry ratio) [1] | degradation of stably expressed bromodomains of BRD2 (GFP/mCherry ratio) [2] | degradation of stably expressed bromodomains of BRD3 (GFP/mCherry ratio) [3]
COC(=O)C[C@@H]1N=C(c2ccc(Cl)cc2)c2c(sc(C(=O)NCCCCCCCCNc3cccc(C(=O)NC4CCC(=O)NC4=O)n3)c2C)-n2c(C)nnc21 (stereo partly drawn) [compound 1, methyl 2-((6S)-4-(4-chlorophenyl)-2-((8-((6-((2,6-dioxopiperidin-3-yl)carbamoyl)pyridin-2-yl)amino)octyl)carbamoyl)-3,9-dimethyl-6H-thieno[3,2-f][1,2,4]triazolo[4,3-a][1,4]diazepin-6-yl)acetate] | able to efficiently degrade | able to efficiently degrade | able to efficiently degrade
COC(=O)C[C@@H]1N=C(c2ccc(Cl)cc2)c2c(sc(C(=O)NCCCCCNc3cccnc3C(=O)NC3CCC(=O)NC3=O)c2C)-n2c(C)nnc21 (stereo partly drawn) [compound 3, methyl 2-((6S)-4-(4-chlorophenyl)-2-((5-((2-((2,6-dioxopiperidin-3-yl)carbamoyl)pyridin-3-yl)amino)pentyl)carbamoyl)-3,9-dimethyl-6H-thieno[3,2-f][1,2,4]triazolo[4,3-a][1,4]diazepin-6-yl)acetate] | only the first bromodomain of BRD4 is degraded | – | –
